The values that follow are results of earlier work, collected in US10064856B2, “Pharmaceutical compositions” (LOCL PHARMA, INC., priority 2008, dated 2018).

For the data set the following is noted: more than about 0.6 to 2.0 gm, typically more than about 0.6 gm.

Turning to `O=S(=O)([O-])[O-].[Zn+2]` [Zinc sulfate, zinc sulfate], the “amount ingested that can induce emesis” value was “more than 0.6 gm”.
